Patent US6608082B1, “Treatment of erectile dysfunction using isoquinoline compound melanocortin receptor ligands” (Lion Bioscience AG, priority 1998, dated 2003)

Biological target: T1, MCR-1 (Homo sapiens, UniProt Q01726)
T1 construct: expressed in transfected cells; host or cells: HEK 293
Assay: Melanocortin receptor binding assay, competition with 125I-HP 467, HEK 293 cells expressing hMCR-1
Details: displacement of 125I-HP 467 at 10 μM isoquinoline compound
Procedure: All cell culture media and reagents were obtained from GibcoBRL (Gaithersburg Md.), except for COSMIC CALF SERUM (HyClone; Logan Utah).
Cells were suspended in PBS, 10% COSMIC CALF SERUM and 1 mM CaCl2. Cell suspensions were prepared at a density of 2×10^4 cells/ml for HEK 293 cells expressing hMCR-3, hMCR-4 or hMCR-5, and 1×10^5 cells/ml for HEK 293 cells expressing hMCR-1. Suspensions were placed in a water bath and allowed to warm to 37° C. for 1 hr.
Binding assays were performed in a total volume of 250 μl for HEK 293 cells. […] To each tube was added 4×10^3 HEK 293 cells expressing hMCR-3, hMCR-4 or hMCR-5, or 2×10^4 cells expressing hMCR-1. Assays were incubated for 2.5 hr at 37° C.
GF/B filter plates were prepared by soaking for at least one hour in 5 mg/ml BSA and 10 mM CaCl2. Assays were filtered using a Brandel 96-well cell harvester (Brandel Inc.; Gaithersburg, Md.). The filters were washed four times with cold 50 mM Tris, pH 7.4, the filter plates were dehydrated for 2 hr and 35 μl of MICROSCINT was added to each well. Filter plates were counted using a Packard Topcount (Packard Instrument Co.) and data analyzed using GraphPad PRISM v2.0 (GraphPad Software Inc.; San Diego Calif.) and Microsoft EXCEL v5.0a (Microsoft Corp.; Redmond Wash.).
To assay isoquinoline compounds, binding assays were performed in duplicate in a 96 well format. […] A 0.2 ml aliquot of suspended cells was added to each well to give the cell numbers indicate above, and the cells were incubated at 37° C. for 2.5 hr. Cells were harvested on GF/B filter plates as described above and counted.

T1 sequence (Q01726 whole entry): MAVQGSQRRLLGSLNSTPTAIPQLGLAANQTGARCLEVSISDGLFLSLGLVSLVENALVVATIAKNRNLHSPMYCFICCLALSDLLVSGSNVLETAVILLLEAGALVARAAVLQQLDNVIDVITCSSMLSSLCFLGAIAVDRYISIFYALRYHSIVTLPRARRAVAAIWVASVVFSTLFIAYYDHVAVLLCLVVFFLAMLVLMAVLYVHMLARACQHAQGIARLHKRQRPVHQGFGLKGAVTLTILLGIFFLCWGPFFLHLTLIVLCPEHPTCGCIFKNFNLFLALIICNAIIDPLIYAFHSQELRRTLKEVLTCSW

Structure (SMILES)	% Disp. MC-1 10 μM (first of duplicate) [%]	% Disp. MC-1 10 μM (second of duplicate) [%]
CNC(CN)CN1Cc2ccccc2C(CNC2CCCCC2)C1c1ccc2c(c1)OCCO2 (stereo not shown) [TRG 2405-93]	43.2	56.2
CNC(CN)CN1Cc2ccccc2C(CNC2CCCCC2)C1c1cccc2ccccc12 (stereo not shown) [TRG 2405-95]	45.6	51.1
CNC(CN)CN1Cc2ccccc2C(CNC2CCCCC2)C1c1ccc(F)c(F)c1F (stereo not shown) [TRG 2405-96]	44.5	54.4
CNC(CN)CN1Cc2ccccc2C(CNC2CCCCC2)C1c1cc(Cl)cc(Cl)c1Cl (stereo not shown) [TRG 2405-97]	58.2	61.1
CNC(CN)CN1Cc2ccccc2C(CNC2CCCCC2)C1c1cccc2c1OCO2 (stereo not shown) [TRG 2405-98]	20.1	48.3
CNC(CN)CN1Cc2ccccc2C(CNC2CCCCC2)C1c1cccc(F)c1F (stereo not shown) [TRG 2405-99]	34.7	54.2
CNC(CN)CN1Cc2ccccc2C(CNC2CCCCC2)C1c1c(F)cccc1F (stereo not shown) [TRG 2405-101]	34	45.3
CNC(CN)CN1Cc2ccccc2C(CNC2CCCCC2)C1c1ccccc1Br (stereo not shown) [TRG 2405-102]	44.7	50.4
CNC(CN)CN1Cc2ccccc2C(CNC2CCCCC2)C1c1c(F)cccc1Cl (stereo not shown) [TRG 2405-104]	32.8	33.3
CNC(CN)CN1Cc2ccccc2C(CNC2CCCCC2)C1c1ccccc1CN (stereo not shown) [TRG 2405-105]	20.2	49.9
CNC(CN)CN1Cc2ccccc2C(CNC2CCCCC2)C1c1ccccc1F (stereo not shown) [TRG 2405-106]	40.7	44.7
CNC(CN)CN1Cc2ccccc2C(CNC2CCCCC2)C1c1ccco1 (stereo not shown) [TRG 2405-107]	43.1	52.1
CNC(CN)CN1Cc2ccccc2C(CNC2CCCCC2)C1c1ncc[nH]1 (stereo not shown) [TRG 2405-108]	46	46.6
CNC(CN)CN1Cc2ccccc2C(CNC2CCCCC2)C1c1ccccc1OC (stereo not shown) [TRG 2405-109]	34.7	44.7
CNC(CN)CN1Cc2ccccc2C(CNC2CCCCC2)C1c1ccc2ccccc2c1 (stereo not shown) [TRG 2405-110]	59.5	61.6
CNC(CN)CN1Cc2ccccc2C(CNC2CCCCC2)C1c1cccs1 (stereo not shown) [TRG 2405-113]	40	58.5
CNC(CN)CN1Cc2ccccc2C(CNC2CCCCC2)C1c1ccc(Cl)c(Cl)c1 (stereo not shown) [TRG 2405-116]	62.3	63
CNC(CN)CN1Cc2ccccc2C(CNC2CCCCC2)C1c1ccc(F)c(F)c1 (stereo not shown) [TRG 2405-117]	40.9	55.7
CNC(CN)CN1Cc2ccccc2C(CNC2CCCCC2)C1c1cc(O)cc(O)c1 (stereo not shown) [TRG 2405-119]	25.9	39.8
CNC(CN)CN1Cc2ccccc2C(CNC2CCCCC2)C1c1cc(OC)cc(OC)c1 (stereo not shown) [TRG 2405-121]	35.3	38.7
CNC(CN)CN1Cc2ccccc2C(CNC2CCCCC2)C1c1cc(C)c(O)c(C)c1 (stereo not shown) [TRG 2405-122]	17.6	40.7
CNC(CN)CN1Cc2ccccc2C(CNC2CCCCC2)C1c1cccc(Oc2ccc(Cl)c(Cl)c2)c1 (stereo not shown) [TRG 2405-123]	47.9	55.6
CNC(CN)CN1Cc2ccccc2C(CNC2CCCCC2)C1c1cccc(C(F)(F)F)c1 (stereo not shown) [TRG 2405-125]	59.1	58.4
CNC(CN)CN1Cc2ccccc2C(CNC2CCCCC2)C1c1cccc(Br)c1 (stereo not shown) [TRG 2405-127]	50.6	60.3
CNC(CN)CN1Cc2ccccc2C(CNC2CCCCC2)C1c1cccc(CN)c1 (stereo not shown) [TRG 2405-129]	39.8	39.6
CNC(CN)CN1Cc2ccccc2C(CNC2CCCCC2)C1c1ccc(OC)c(F)c1 (stereo not shown) [TRG 2405-130]	48.9	43.3
